# How the values were obtained:
# CaV2.2 [1] = target: T1, CaV2.2 (Homo sapiens, UniProt Q00975); test: cell-based
# CaV2.2 [2] = target: T1, CaV2.2
# in vitro = conditions: simulated intestinal fluid, pH 6.8
# T1 sequence (Q00975 whole entry, looked up): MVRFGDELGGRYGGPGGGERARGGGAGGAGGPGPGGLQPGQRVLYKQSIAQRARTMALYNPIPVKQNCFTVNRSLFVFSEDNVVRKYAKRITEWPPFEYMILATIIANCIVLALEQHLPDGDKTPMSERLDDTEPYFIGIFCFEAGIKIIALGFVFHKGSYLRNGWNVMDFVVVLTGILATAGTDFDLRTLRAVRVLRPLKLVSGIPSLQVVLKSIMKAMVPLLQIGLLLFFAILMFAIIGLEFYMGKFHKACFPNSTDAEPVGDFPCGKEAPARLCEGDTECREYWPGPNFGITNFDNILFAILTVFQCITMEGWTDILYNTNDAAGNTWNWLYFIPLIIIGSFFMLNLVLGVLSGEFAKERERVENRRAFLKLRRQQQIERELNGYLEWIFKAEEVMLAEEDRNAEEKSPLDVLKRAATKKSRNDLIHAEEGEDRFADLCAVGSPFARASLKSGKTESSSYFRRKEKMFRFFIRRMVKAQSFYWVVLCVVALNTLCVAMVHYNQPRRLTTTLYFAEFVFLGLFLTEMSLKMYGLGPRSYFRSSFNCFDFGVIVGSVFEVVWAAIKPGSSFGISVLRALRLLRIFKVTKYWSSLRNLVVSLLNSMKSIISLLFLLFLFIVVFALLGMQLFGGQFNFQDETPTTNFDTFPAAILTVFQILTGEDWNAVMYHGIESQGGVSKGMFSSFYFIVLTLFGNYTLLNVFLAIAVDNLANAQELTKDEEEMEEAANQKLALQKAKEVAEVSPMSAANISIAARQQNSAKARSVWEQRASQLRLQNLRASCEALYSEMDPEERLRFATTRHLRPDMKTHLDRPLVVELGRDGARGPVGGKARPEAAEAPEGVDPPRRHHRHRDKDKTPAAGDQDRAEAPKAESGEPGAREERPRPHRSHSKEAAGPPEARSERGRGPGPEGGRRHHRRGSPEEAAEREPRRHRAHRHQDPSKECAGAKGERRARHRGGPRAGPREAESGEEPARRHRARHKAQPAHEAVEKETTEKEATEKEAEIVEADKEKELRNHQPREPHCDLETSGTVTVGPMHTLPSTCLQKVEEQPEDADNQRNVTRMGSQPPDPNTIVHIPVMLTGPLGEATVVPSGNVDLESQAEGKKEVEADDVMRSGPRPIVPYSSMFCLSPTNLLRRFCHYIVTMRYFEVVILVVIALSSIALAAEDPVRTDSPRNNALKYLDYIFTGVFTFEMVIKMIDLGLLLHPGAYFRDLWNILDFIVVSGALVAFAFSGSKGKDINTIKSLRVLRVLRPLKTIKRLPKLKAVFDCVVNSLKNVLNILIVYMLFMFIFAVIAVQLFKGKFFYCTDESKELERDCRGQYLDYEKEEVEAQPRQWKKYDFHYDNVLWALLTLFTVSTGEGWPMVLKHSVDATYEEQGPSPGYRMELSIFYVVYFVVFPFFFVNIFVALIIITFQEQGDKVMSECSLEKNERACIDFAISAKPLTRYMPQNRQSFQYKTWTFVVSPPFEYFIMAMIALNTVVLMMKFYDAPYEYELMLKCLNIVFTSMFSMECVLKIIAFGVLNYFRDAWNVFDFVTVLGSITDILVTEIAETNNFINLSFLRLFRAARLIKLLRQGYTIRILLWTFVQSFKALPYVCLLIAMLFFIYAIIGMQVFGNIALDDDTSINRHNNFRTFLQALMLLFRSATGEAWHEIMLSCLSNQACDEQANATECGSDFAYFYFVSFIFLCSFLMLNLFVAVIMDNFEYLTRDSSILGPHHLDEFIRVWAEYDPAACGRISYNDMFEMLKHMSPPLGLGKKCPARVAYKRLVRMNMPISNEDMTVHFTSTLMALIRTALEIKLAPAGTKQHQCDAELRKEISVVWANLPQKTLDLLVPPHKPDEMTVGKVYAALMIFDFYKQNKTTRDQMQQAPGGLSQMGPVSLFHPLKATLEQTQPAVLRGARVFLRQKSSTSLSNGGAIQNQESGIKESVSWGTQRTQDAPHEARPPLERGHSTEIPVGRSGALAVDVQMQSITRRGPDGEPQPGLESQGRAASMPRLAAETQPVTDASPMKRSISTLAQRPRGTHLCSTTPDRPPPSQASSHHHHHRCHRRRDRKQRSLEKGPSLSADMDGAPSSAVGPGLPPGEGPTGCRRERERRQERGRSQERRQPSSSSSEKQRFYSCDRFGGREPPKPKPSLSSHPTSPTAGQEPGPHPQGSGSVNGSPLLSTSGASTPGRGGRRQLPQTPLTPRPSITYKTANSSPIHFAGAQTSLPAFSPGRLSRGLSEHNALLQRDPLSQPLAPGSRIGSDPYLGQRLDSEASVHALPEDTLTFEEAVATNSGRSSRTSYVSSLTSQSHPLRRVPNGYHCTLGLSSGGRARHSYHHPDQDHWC
Compound,EC50 (CaV2.2 [1]),IC50 (CaV2.2 [1]),LogEC50 (CaV2.2 [2]),half-life (in vitro),remaining at 1 h (in vitro)
CCCC[C@@H]1NC(=O)[C@H](CC(C)C)NC(=O)[C@H](CCCNC(=N)N)NC(=O)[C@H](CO)NC(=O)[C@@H]2CSSC[C@@H]3NC(=O)[C@H](CO)NC(=O)CNC(=O)[C@H]([C@@H](C)O)NC(=O)[C@H](CSSC[C@H](N)C(=O)N[C@@H](CCCCN)C(=O)NCC(=O)N[C@@H](CCCCN)C(=O)NCC(=O)N[C@@H](C)C(=O)N[C@@H](CCCCN)C(=O)N2)NC(=O)[C@H](CSSC[C@@H](C(N)=O)NC(=O)[C@H](CCCCN)NC(=O)CNC(=O)[C@H](CO)NC(=O)[C@H](CCCNC(=N)N)NC3=O)NC(=O)[C@H](CC(=O)O)NC(=O)[C@H](Cc2ccc(O)cc2)NC1=O [M-2],0.1 nM,0.1 nM,-9.9,,
CSCC[C@@H]1NC(=O)[C@H](CC(C)C)NC(=O)[C@H](CCCNC(=N)N)NC(=O)[C@H](CO)NC(=O)[C@@H]2CSSC[C@@H]3NC(=O)[C@H](CO)NC(=O)CNC(=O)[C@H]([C@@H](C)O)NC(=O)[C@H](CSSC[C@H](N)C(=O)N[C@@H](CCCCN)C(=O)NCC(=O)N[C@@H](CCCCN)C(=O)NCC(=O)N[C@@H](C)C(=O)N[C@@H](CCCCN)C(=O)N2)NC(=O)[C@H](CSSC[C@@H](C(=O)O)NC(=O)[C@H](CCCCN)NC(=O)CNC(=O)[C@H](CO)NC(=O)[C@H](CCCNC(=N)N)NC3=O)NC(=O)[C@H](CC(=O)O)NC(=O)[C@H](Cc2ccc(O)cc2)NC1=O [M-3],1.7 nM,1.7 ± 1.2 nM,-8.8,,
CCCC[C@@H]1NC(=O)[C@H](CC(C)C)NC(=O)[C@H](CCCNC(=N)N)NC(=O)[C@H](CO)NC(=O)[C@@H]2CSSC[C@@H]3NC(=O)[C@H](CO)NC(=O)CNC(=O)[C@H]([C@@H](C)O)NC(=O)[C@@H]4CSSC[C@H](NC(=O)[C@H](C)NC(=O)CNC(=O)CNC(=O)[C@H](CC(N)=O)NC(=O)CNC(=O)[C@H](C)NC(=O)[C@H](CSSC[C@H](NC(=O)[C@H](CC(=O)O)NC(=O)[C@H](Cc5ccc(O)cc5)NC1=O)C(=O)N4)NC(=O)[C@H](CCCCN)NC(=O)CNC(=O)[C@H](CO)NC(=O)[C@H](CCCNC(=N)N)NC3=O)C(=O)N[C@@H](CCCCN)C(=O)NCC(=O)N[C@@H](CCCCN)C(=O)NCC(=O)N[C@@H](C)C(=O)N[C@@H](CCCCN)C(=O)N2 [cM-6],43.2 nM,43.2 ± 1.4 nM,-7.4,,
CCCC[C@@H]1NC(=O)[C@H](CC(C)C)NC(=O)[C@H](CCCNC(=N)N)NC(=O)[C@H](CO)NC(=O)[C@@H]2CSSC[C@@H]3NC(=O)[C@H](CO)NC(=O)CNC(=O)[C@H]([C@@H](C)O)NC(=O)[C@@H]4CSSC[C@H](NC(=O)[C@H](C)NC(=O)[C@H](C)NC(=O)CNC(=O)CNC(=O)[C@H](CC(N)=O)NC(=O)CNC(=O)[C@H](C)NC(=O)[C@H](CSSC[C@H](NC(=O)[C@H](CC(=O)O)NC(=O)[C@H](Cc5ccc(O)cc5)NC1=O)C(=O)N4)NC(=O)[C@H](CCCCN)NC(=O)CNC(=O)[C@H](CO)NC(=O)[C@H](CCCNC(=N)N)NC3=O)C(=O)N[C@@H](CCCCN)C(=O)NCC(=O)N[C@@H](CCCCN)C(=O)NCC(=O)N[C@@H](C)C(=O)N[C@@H](CCCCN)C(=O)N2 [cM-7],13.5 nM,13.5 ± 1.2 nM,-7.8,43 min,~38%
CCCC[C@@H]1NC(=O)[C@H](CC(C)C)NC(=O)[C@H](CCCNC(=N)N)NC(=O)[C@H](CO)NC(=O)[C@@H]2CSSC[C@@H]3NC(=O)[C@H](CO)NC(=O)CNC(=O)[C@H]([C@@H](C)O)NC(=O)[C@@H]4CSSC[C@H](NC(=O)[C@H](C)NC(=O)[C@H](C)NC(=O)CNC(=O)CNC(=O)[C@H](CC(N)=O)NC(=O)CNC(=O)CNC(=O)[C@H](C)NC(=O)[C@H](CSSC[C@H](NC(=O)[C@H](CC(=O)O)NC(=O)[C@H](Cc5ccc(O)cc5)NC1=O)C(=O)N4)NC(=O)[C@H](CCCCN)NC(=O)CNC(=O)[C@H](CO)NC(=O)[C@H](CCCNC(=N)N)NC3=O)C(=O)N[C@@H](CCCCN)C(=O)NCC(=O)N[C@@H](CCCCN)C(=O)NCC(=O)N[C@@H](C)C(=O)N[C@@H](CCCCN)C(=O)N2 [cM-8],21.8 nM,21.8 ± 1.2 nM,-7.6,,
CCCC[C@@H]1NC(=O)[C@H](CC(C)C)NC(=O)[C@H](CCCNC(=N)N)NC(=O)[C@H](CO)NC(=O)[C@@H]2CSSC[C@@H]3NC(=O)[C@H](CO)NC(=O)CNC(=O)[C@H]([C@@H](C)O)NC(=O)[C@@H]4CSSC[C@H](NC(=O)[C@H](C)NC(=O)[C@H](C)NC(=O)CNC(=O)CNC(=O)[C@H](CC(N)=O)NC(=O)CNC(=O)CNC(=O)[C@H](C)NC(=O)[C@H](C)NC(=O)[C@H](CSSC[C@H](NC(=O)[C@H](CC(=O)O)NC(=O)[C@H](Cc5ccc(O)cc5)NC1=O)C(=O)N4)NC(=O)[C@H](CCCCN)NC(=O)CNC(=O)[C@H](CO)NC(=O)[C@H](CCCNC(=N)N)NC3=O)C(=O)N[C@@H](CCCCN)C(=O)NCC(=O)N[C@@H](CCCCN)C(=O)NCC(=O)N[C@@H](C)C(=O)N[C@@H](CCCCN)C(=O)N2 [cM-9],307 nM,306.6 ± 1.5 nM,-6.4,,

# From publication PMC10952433, “A Chemoenzymatic Approach To Produce a Cyclic Analogue of the Analgesic Drug MVIIA (Ziconotide)” (Angewandte Chemie (International Ed. in English), 2023)
